Holding throughout (assay type): cell-based
One experiment concerns Ustilago avenae. Put plainly: Ustilago avenae test (in vitro)/microtest. As to conditions: single active compound, 4 days incubation, optical density. The protocol: Ustilago avenae—Test (In Vitro)/Microtest
(§1) The microtest was performed in liquid medium with potato-dextrose broth (PDB) using microtitre plates.
(§2) The active compound is applied as the technical active substance dissolved in methanol.
A spore suspension of Ustilago avenae was used for inoculation. After 4 days of incubation by darkness under shaking (10 Hrz), the optical density in each cavity was evaluated with the aid of a microtitre plate reader.
(§3) 0% means an efficacy which corresponds to that of the control, while an efficacy of 100% means that no fungal growth is observed.

A further experiment concerns Pyricularia oryzae. The note with it: single active compound, 0.3 ppm, 4 days incubation, optical density.
The next experiment concerns Phytophthora cryptogea. Put plainly: Phytophthora cryptogea test (in vitro)/microtest. The note with it: single active compound, 0.3 ppm, 3 days incubation, optical density. The protocol:
Phytophthora cryptogea—Test (In Vitro)/Microtest
as §1, §2
A mycelium suspension of Phytophthora ayptogea was used for inoculation. After 3 days of incubation by darkness under shaking (10 Hrz), the optical density in each cavity was evaluated with the aid of a microtitre plate reader.
as §3

In turn, `Cc1nn(C)c(F)c1C(=O)Nc1ccccc1C(C)CC(C)C` (centres unmarked) [BYF 14182] showed an Efficacy in % in the experiment on Ustilago avenae (Example B, 0.01 ppm) of 95%. In turn, `CO/N=C(/C(=O)OC)c1ccccc1CO/N=C(\C)c1cccc(C(F)(F)F)c1` [Trifloxystrobin, trifloxystrobin] came in with an Efficacy in % in the experiment on Pyricularia oryzae of 56%.

`COCC(=O)N(c1c(C)cccc1C)C(C)C(=O)OC` (centres unmarked) [Metalaxyl, metalaxyl]: in the experiment with Phytophthora cryptogea, the Efficacy in % was determined as 48%.

As for `COc1ccc(-c2coc3cc(O)ccc3c2=O)cc1` [Formononetin], the Efficacy in % in the experiment with Ustilago avenae (Example B, 0.01 ppm) amounted to 13%; in the experiment with Ustilago avenae (Example D, 0.1 ppm), 17%; in the experiment on Pyricularia oryzae, 11%; in the experiment with Phytophthora cryptogea it was 14%. On to `CC(C)(C)C(O)(CCc1ccc(Cl)cc1)Cn1cncn1` (centres unmarked) [Tebuconazole, tebuconazole], for which the Efficacy in % in the experiment on Ustilago avenae (Example D, 0.1 ppm) was found to be 96%.
